Reference: patent publication US20250127937A1, “FAP INHIBITOR” (UNIVERSITÄT HEIDELBERG, priority 2018, published 2025)

Key:
[1] = test system: HT-1080-FAP cells; assay: Efflux experiments in HT-1080-FAP cells; assay type: cell-based, human; details: after 24 h in compound-free medium
Method: Radioligand binding studies were performed using HT-1080-FAP cells. The radiolabeled compound was added to the cell culture and incubated for different time intervals ranging from 10 min to 24 h. Competition experiments were performed by simultaneous exposure to unlabeled (10^−5 M to 10^−9M) and radiolabeled compound for 60 min. For efflux experiments, radioactive medium was removed after incubation for 60 min and replaced by non-radioactive medium for time intervals ranging from 1 to 24 h. For internalization experiments, surface bound activity was removed by incubating the cells with 1 M glycine-HCl buffer for 10 min. The radioactivity was measured using a γ-counter, normalized to 1 mio cells and calculated as percentage of applied dose (% ID).
For radioligand binding studies, cells were seeded in 6-well plates and cultivated for 48 h to a final confluence of approx. 80-90% (1.2-2 mio cells/well). The medium was replaced by 1 mL fresh medium without fetal calf serum. The radiolabeled compound was added to the cell culture and incubated for different time intervals ranging from 10 min to 24 h. Competition experiments were performed by simultaneous exposure to unlabeled (10^−5 M to 10^−9 M) and radiolabeled compound for 60 min. For efflux experiments, radioactive medium was removed after incubation for 60 min and replaced by non-radioactive medium for time intervals ranging from 1 to 24 h. In all experiments, the cells were washed with 1 mL phosphate-buffered saline pH 7.4 for 2 times and subsequently lysed with 1.4 ml lysis buffer (0.3 M NaOH, 0.2% SDS). Radioactivity was determined in a γ-counter (Cobra II, Packard), normalized to 1 mio cells and calculated as percentage of the applied dose (% ID). Each experiment was performed 3 times, and 3 repetitions per independent experiment were acquired.

[2] = test system: HT-1080-FAP tumor xenografts; assay: Organ distribution ex vivo in HT-1080-FAP tumor bearing nude mice; parameters: species or system mouse
Method: For in vivo experiments, 8 week old BALB/c nu/nu mice (Charles River) were subcutaneously inoculated into the right trunk with 5×10^6 with HT-1080-FAP, Capan-2 or SK-LMS-1 cells, respectively. When the size of the tumor reached approximately 1 cm^3, the radiolabeled compound was injected via the tail vein (˜10 MBq for small-animal PET imaging; ˜1 MBq for organ distribution). PET imaging was performed up to 140 min after intravenous injection of 1 MBq of Ga-68 labeled compound per mouse using the Inveon PET small-animal PET scanner (Siemens). Images were reconstructed iteratively using the 3D-OSEM+MAP method and were converted to standardized uptake value (SUV) images. Quantification was done using a ROI technique and expressed as SUV mean. For organ distribution of Lu-177 labeled compound (approx. […] per mouse), the animals (n=3 for each time point) were sacrificed after indicated time points (from 30 min to 24 h). The distributed radioactivity was measured in all dissected organs and in blood using a γ-counter (Cobra Autogamma, Packard). The values are expressed as percentage of injected dose per gram of tissue (% ID/g).

[3] = test system: tumor lesions and normal tissue of cancer patients; assay: Clinical PET/CT imaging in cancer patients (SUV); assay type: in vivo, human
Method: Diagnostic imaging of more than 100 patients was performed under the conditions of the updated declaration of Helsinki, § 37 (Unproven interventions in clinical practice) and in accordance to the German Pharmaceuticals Law § 13 (2b) for medical reasons using either ^68Ga-FAPI-02 or -04, which was applied intravenously (20 nmol, 122-336 MBq), 10 min, 1 and 3 hours post tracer administration. Variation of injected radiotracer activity is due to the short half-life of ^68Ga and the variable elution efficiencies obtained during the lifetime of the ^68Ge/^68Ga generator. […] The PET/CT scans were performed with a Biograph mCT Flow™ PET/CT-Scanner (Siemens Medical Solution) using the following parameters: slice thickness of 5 mm, increment of 3-4 mm, soft-tissue reconstruction kernel, care dose. Immediately after CT scanning, a whole-body PET was acquired in 3D (matrix 200×200) in FlowMotion™ with 0.7 cm/min. The emission data were corrected for random, scatter and decay. Reconstruction was conducted with an ordered subset expectation maximisation (OSEM) algorithm with 2 iterations/21 subsets and Gauss-filtered to a transaxial resolution of 5 mm at full-width half-maximum (FWHM). Attenuation correction was performed using the low-dose non-enhanced CT data. The quantitative assessment of standardized uptake values (SUV) was done using a region of interest technique.
For the normal tissue of 16 organs, a 2 cm Spheric-VOI was placed in the parenchyma, for tumor lesions a threshold segmented VOI was used to quantify SUVmean/max^3.

[4] = Preliminary dosimetry estimate in patients; assay type: in vivo, human
[5] = target: recombinant human FAP protein (Homo sapiens (Human), UniProt Q12884); assay: Enzyme inhibition assay with fluorogenic substrate Z-GP-AMC; assay type: biochemical; details: 0-1000 nM/well, 30 min at 37° C.
[6] = Blood pool clearance from SUVmean of the heart; assay type: in vivo
From the text: The calculated plateau values, which were higher for Ga-68 labeled FAPI-13, -21, -36 and AlF-18 labeled FAPI-74 theoretically correspond to a higher fraction of compound which is not cleared due to unspecific binding or by remaining in circulating (Table 12).

[7] = Lu-177 labeled, 1 h after i.v., HT-1080-FAP, mean ± SD, n = 3

recombinant human FAP protein, sequence (Q12884 whole entry): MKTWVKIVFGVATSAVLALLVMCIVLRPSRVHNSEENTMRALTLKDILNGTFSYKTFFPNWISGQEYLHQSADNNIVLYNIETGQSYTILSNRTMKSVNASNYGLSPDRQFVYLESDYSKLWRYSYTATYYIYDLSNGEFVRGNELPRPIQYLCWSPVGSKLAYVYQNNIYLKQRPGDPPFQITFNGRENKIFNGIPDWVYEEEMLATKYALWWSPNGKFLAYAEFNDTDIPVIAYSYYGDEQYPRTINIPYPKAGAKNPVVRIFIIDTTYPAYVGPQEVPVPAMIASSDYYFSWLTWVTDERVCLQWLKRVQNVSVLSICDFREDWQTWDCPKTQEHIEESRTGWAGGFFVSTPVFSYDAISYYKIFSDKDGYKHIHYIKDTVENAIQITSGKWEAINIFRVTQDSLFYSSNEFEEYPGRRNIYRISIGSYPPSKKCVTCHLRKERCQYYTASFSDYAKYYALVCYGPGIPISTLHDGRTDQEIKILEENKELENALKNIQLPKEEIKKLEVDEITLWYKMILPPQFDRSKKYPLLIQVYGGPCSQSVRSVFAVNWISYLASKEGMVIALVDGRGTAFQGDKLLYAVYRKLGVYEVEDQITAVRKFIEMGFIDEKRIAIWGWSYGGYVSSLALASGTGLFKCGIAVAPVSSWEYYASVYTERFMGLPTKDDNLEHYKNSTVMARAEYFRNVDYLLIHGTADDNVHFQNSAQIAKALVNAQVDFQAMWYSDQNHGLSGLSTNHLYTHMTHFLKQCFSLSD

highest enrichment within the FAP-expressing tumor ([2]; 177Lu labeled, after 2 h): 5.4 % ID/g
Tumor uptake 1 h ([2]; HT-1080-FAP tumor bearing nude mice, 1 h, mean ± SD, n = 3): 4.9 ± 0.82 % ID/g
Tumor uptake 4 h ([2]; HT-1080-FAP tumor bearing nude mice, 4 h, mean ± SD, n = 3): 5.4 ± 1.51 % ID/g
Tumor uptake 24 h ([2]; HT-1080-FAP tumor bearing nude mice, 24 h, mean ± SD, n = 3): 3.0 ± 0.23 % ID/g
Blood uptake [2, 7]: 1.70 ± 0.206 % ID/g
Brain uptake [2, 7]: 0.08 ± 0.010 % ID/g
Heart uptake [2, 7]: 0.80 ± 0.089 % ID/g
Intestines uptake [2, 7]: 0.66 ± 0.196 % ID/g
Kidneys uptake [2, 7]: 2.28 ± 0.477 % ID/g
Liver uptake [2, 7]: 0.73 ± 0.118 % ID/g
Lungs uptake [2, 7]: 1.50 ± 0.151 % ID/g
Muscle uptake [2, 7]: 0.92 ± 0.020 % ID/g
Spleen uptake [2, 7]: 0.48 ± 0.072 % ID/g
Tumor uptake [2, 7]: 4.89 ± 0.817 % ID/g
background activity (SUV) ([3]; 68Ga labeled, 1 h p.i.): 2
decrease of tumor uptake (washout) ([3]; from 1 h to 3 h p.i., patients): 50%
equivalent dose of an exam ([4]; 200 MBq Ga-68): 3-4 mSv
effective dose ([4]; calculated with IDAC1/ICRP60): 1.66E-02 mSv/MBq
effective dose ([4]; calculated with IDAC2/ICRP103): 1.35E-02 mSv/MBq
effective dose ([4]; calculated with OLINDA): 1.64E-02 mSv/MBq
inhibition of enzymatic FAP activity [5]: robust, dose-dependent FAP inhibition
Plateau value (SUVmean) ([6]; hypothetical plateau, two phase exponential decay of heart SUVmean): 0.21
SMILES: N#C[C@@H]1CC(F)(F)CN1C(=O)CNC(=O)c1ccnc2ccc(OCCCN3CCN(C(=O)CN4CCN(CC(=O)O)CCN(CC(=O)O)CCN(CC(=O)O)CC4)CC3)cc12 [FAPI-04]
retention of the originally accumulated radioactivity (efflux) [1]: 49%
maximum SUV values in primary tumor, lymph node and bone metastases ([3]; 68Ga labeled, 1 h after i.v. administration, patients): ≤ 48.0
average SUVmax, lowest uptake group ([3]; 68Ga labeled, 1 h p.i., renal cell, differentiated thyroid, adenoid-cystic, gastric carcinoma, pheochromocytoma): < 6
average SUVmax, highest uptake group ([3]; 68Ga labeled, 1 h p.i., sarcoma, esophageal, breast, cholangiocellular carcinoma, lung cancer): > 12
Blood pool-clearence (T1/2 [min]) ([6]; rate determining half-life, two phase exponential decay of heart SUVmean 0.375-60 min): 7.1 min
